Ki data for 1 compound are collected here from ChEMBL document CHEMBL1157189, “S-Ribosylhomocysteine analogues with the carbon-5 and sulfur atoms replaced by a vinyl or (fluoro)vinyl unit” (Bioorg Med Chem, 2008).

The subject of the assay is Bacillus subtilis. Description: Inhibition of CO2+ substituted Bacillus subtilis S-ribosyl-homocysteinase.

What is called Ki is the equilibrium dissociation constant of an inhibitor or competing ligand from its target. A higher Ki goes with a looser hold on the target. With `O[C@@H]1C[C@@H](/C=C/F)O[C@@H]1O` (mixture of isomers), the Ki worked out at 96 µM.
